Series [1] is described as follows: Animal death during the hyperoxia experiment. The note with it: neonatal mice, i.p. every day P5 to P8, entire experiment. It counts as in vivo, mouse. Here is the method: Pregnant C57/BL6 wild-type mice (National Experimental Animal Center, Pocheon, Korea) were raised in individual cages by offering a free access to water and food to each mouse, the mice spontaneously gave birth to babies, and then the offsprings were grown in a chamber under hyperoxia (80% O2) conditions (P) or normal oxygen (21% O2) conditions by day 14. At this time, environmental humidity and temperature were maintained at 50% and 24° C., and to investigate the effect of activated FPR2, WKYMVm (SEQ ID NO: 1) or physiological saline (vehicle, 20 μl) was intraperitoneally administered to each mouse every day from P5 to P8. In this case, death of the animals was not observed throughout the entire experimental processes.

Series [2] relates to bronchopulmonary dysplasia in neonatal mice. As to conditions: Martin et al. 2014; cited from earlier work.

As to `CSCC[C@H](NC(=O)[C@H](Cc1ccc(O)cc1)NC(=O)[C@H](CCCCN)NC(=O)[C@@H](N)Cc1c[nH]c2ccccc12)C(=O)N[C@H](C(=O)N[C@H](CCSC)C(=O)O)C(C)C` [WKYMVm, Trp-Lys-Tyr-Met-Val-D-Met], the “death of the animals” value in series [1] is given as “not observed”.

Turning to `CCCCC[C@H](O)/C=C/C=C\C=C\C=C\[C@@H](O)[C@@H](O)CCCC(=O)O` [lipoxin A4], in series [2], the “alveolar damage caused by bronchopulmonary dysplasia” value is reported as “improve alveolar damage”.

On to `CC/C=C\C[C@H](O)/C=C/C=C\C=C\C=C\[C@@H](O)[C@@H](O)C/C=C\CCC(=O)O` [resolvin D1], for which the “alveolar damage caused by bronchopulmonary dysplasia” value in series [2] is on record as “improve alveolar damage”.
